Measurements from PMC10918664, “New Triazole-Based Potent Inhibitors of Human Factor XIIa as Anticoagulants” (ACS Omega, 2024).
Read-outs that look alike come from different tables or passages of the source.

What was measured:
[1] = molecular target: T1, thrombin (factor IIa) (Homo sapiens, UniProt P00734); design: method as in PMID 36321236; settings: previously reported inhibitor, in figure; read-out: FIIa IC50; cited from earlier work
T1 construct: The prothrombinase complex converts prothrombin (FII) to thrombin (FIIa); purchased Haematologic Technologies (Essex Junction, VT); host or cells: human plasma

[2] = molecular target: T2, human FXIIa (Homo sapiens, UniProt P00748); experiment: Direct inhibition of human FXIIa, chromogenic substrate hydrolysis assay; settings: for HS (Hill slope) / ΔY (%) efficacy of inhibition: pH 7.4, 37 °C; for significant inhibitory activity against FXIIa in the screening: at 200 μM; for subclass of inhibitor based on selectivity studies: versus thrombin, FIXa, FXa, FXIa
T2 sequence (P00748 373-615 limits assumed): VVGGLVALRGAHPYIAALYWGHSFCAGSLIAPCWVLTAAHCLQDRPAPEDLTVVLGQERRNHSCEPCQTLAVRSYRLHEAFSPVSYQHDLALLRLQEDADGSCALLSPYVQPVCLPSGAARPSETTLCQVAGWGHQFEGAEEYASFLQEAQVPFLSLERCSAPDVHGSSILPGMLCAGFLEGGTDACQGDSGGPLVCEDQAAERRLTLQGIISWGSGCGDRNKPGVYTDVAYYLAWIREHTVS
T2 sequence (P00748 20-372 partner limits assumed): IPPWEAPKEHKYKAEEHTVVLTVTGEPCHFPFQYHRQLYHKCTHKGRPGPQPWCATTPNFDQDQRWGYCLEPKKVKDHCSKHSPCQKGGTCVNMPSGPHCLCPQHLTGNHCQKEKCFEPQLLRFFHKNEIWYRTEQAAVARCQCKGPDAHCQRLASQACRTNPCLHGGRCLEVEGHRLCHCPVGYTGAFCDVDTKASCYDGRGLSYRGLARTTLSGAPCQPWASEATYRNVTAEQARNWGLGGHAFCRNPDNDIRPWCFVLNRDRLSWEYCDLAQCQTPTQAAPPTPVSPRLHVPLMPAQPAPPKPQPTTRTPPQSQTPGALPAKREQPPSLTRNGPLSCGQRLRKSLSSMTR
Experimental: The slope of the resulting line corresponds to the residual enzyme activity, and the change in residual enzyme activity, relative to the concentration of the inhibitor, is plotted and fitted using the logistic eq 1. […] In this setup, each well of the 96-well microplate contained 175 μL of pH 7.4 TrisHCl buffer, to which 5 μL of potential inhibitors (or vehicle) and 5 μL of human FXIIa (stock concentration: 200 nM) were added sequentially. […] The relative residual FXIIa activity at each inhibitor concentration was computed by comparing the FXIIa activity in the absence and presence of the inhibitor. To obtain the potency (IC50) and efficacy (ΔY) of inhibition, the dose dependence of residual FXIIa activity was fitted to the logistic eq 1.

[3] = tested on: human plasma; design: method as in PMID 36321236; settings: previously reported inhibitor, in figure; read-out: APTT (EC×1.5); cited from earlier work
[4] = molecular target: T3, FIXa (Homo sapiens, UniProt P00740); experiment: Inhibition of FIXa, chromogenic substrate hydrolysis assay; assay type: biochemical; settings: for IC50: FIXa, pH 7.4, 37 °C
T3 construct: purchased Haematologic Technologies (Essex Junction, VT); host or cells: human plasma
T3 sequence (P00740 227-461 limits assumed): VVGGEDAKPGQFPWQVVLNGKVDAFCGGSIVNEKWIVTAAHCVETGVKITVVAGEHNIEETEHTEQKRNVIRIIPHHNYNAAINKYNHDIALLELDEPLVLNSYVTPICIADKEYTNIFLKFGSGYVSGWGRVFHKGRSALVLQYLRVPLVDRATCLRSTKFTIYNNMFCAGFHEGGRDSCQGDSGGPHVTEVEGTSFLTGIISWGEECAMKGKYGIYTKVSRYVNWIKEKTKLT
T3 sequence (P00740 47-191 partner limits assumed): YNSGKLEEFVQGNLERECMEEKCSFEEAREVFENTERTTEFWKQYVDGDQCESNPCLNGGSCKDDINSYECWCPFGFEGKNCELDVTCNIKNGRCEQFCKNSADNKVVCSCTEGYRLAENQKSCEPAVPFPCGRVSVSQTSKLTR
Experimental: (§1) The selectivity was evaluated against thrombin and factors IXa, Xa, and XIa.
(§2) These assays were performed by using substrates and conditions appropriate for the enzyme being studied. To conduct selectivity analysis, various concentrations of the inhibitors were utilized, and the residual enzyme activity was assessed at each concentration. […] This allowed for the determination of the corresponding IC50 and efficacy of the enzyme–inhibitor complex. The KM of the chromogenic substrate with its enzyme was employed to ascertain the concentration of the chromogenic substrate used in the inhibition studies.

[5] = molecular target: T4, FXIa (Homo sapiens, UniProt P03951); experiment: Inhibition of FXIa, chromogenic substrate hydrolysis assay; assay type: biochemical; settings: for IC50: pH 7.4, 37 °C; for selectivity index (IC50 enzyme/IC50 FXIIa): FXIa over FXIIa
T4 construct: purchased Haematologic Technologies (Essex Junction, VT); host or cells: human plasma
T4 sequence (P03951 388-625 limits assumed): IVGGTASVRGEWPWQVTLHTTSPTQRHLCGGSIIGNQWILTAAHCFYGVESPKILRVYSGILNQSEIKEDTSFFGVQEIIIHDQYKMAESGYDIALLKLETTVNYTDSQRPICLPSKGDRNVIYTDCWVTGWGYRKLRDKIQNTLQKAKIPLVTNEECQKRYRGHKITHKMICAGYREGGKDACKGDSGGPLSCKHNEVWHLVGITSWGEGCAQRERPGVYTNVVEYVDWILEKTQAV
T4 sequence (P03951 19-387 partner limits assumed): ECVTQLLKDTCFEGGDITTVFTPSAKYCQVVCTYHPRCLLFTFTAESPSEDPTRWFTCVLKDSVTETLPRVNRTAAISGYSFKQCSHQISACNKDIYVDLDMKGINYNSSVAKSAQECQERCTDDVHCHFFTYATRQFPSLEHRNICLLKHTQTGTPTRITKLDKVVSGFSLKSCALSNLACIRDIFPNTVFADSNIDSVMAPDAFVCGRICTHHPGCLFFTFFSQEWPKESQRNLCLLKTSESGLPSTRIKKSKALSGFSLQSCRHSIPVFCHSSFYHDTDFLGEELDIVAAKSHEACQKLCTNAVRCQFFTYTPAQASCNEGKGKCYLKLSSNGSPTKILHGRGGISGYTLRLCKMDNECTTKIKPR
Experimental: as §1, §2

[6] = tested on: human plasma; experiment: Activated partial thromboplastin time (APTT) clotting assay; assay type: biochemical
Experimental: The APTT assay is employed to assess the impact of a new potential anticoagulant on clotting driven by the contact/intrinsic pathway, involving FIXa, FXIa, and FXIIa. Conversely, the PT assay is utilized to gauge the impact of the new potential anticoagulant on the extrinsic pathway of coagulation, which includes FVIIa. […] In the PT assay, thromboplastin-D was created by adding 4 mL of distilled water, and the resulting mixture was warmed to 37 °C. […] Upon the addition of 200 μL of prewarmed thromboplastin-D reagent, the clotting time was recorded. In the APTT assay, 90 μL of citrated human plasma was combined with 10 μL of the molecule of interest (or the vehicle) and 100 μL of prewarmed 0.2% ellagic acid. Following a 4 min incubation at 37 °C, clotting was initiated by introducing 100 μL of prewarmed 0.025 M CaCl2, and the clotting time was recorded. In both assays, approximately nine or more concentrations of molecules were employed to generate concentration vs effect profiles. The data were then plotted against a quadratic trendline, enabling the estimation of the concentration required to double the clotting time. Clotting times were similarly measured using 10 μL of highly purified water (negative control). The positive controls used in APTT and PT assays were (1) UFH, antithrombin activator; (2) argatroban, a clinically used thrombin inhibitor; (3) rivaroxaban, a clinically used FXa inhibitor; and (4) C6B7, a monoclonal antibody FXIIa inhibitor.

[7] = molecular target: T1, thrombin (factor IIa); experiment: Inhibition of thrombin, chromogenic substrate hydrolysis assay; assay type: biochemical; settings: for HS (Hill slope) / ΔY (%) / IC50: thrombin; for selectivity index (IC50 enzyme/IC50 FXIIa): thrombin over FXIIa; for IC50: pH 7.4, 37 °C
Experimental: as §1, §2

[8] = molecular target: T5, FXa (Homo sapiens, UniProt P00742); experiment: Inhibition of FXa, chromogenic substrate hydrolysis assay; assay type: biochemical
T5 construct: purchased Haematologic Technologies (Essex Junction, VT); host or cells: human plasma
T5 sequence (P00742 235-488 limits assumed): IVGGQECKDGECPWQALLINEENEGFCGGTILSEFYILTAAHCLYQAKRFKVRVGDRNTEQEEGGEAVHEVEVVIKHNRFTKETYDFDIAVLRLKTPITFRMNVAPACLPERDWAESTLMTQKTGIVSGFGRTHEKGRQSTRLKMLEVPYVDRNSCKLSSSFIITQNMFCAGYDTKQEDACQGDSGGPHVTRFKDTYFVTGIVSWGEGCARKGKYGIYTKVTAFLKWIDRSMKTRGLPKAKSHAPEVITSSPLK
T5 sequence (P00742 41-179 partner limits assumed): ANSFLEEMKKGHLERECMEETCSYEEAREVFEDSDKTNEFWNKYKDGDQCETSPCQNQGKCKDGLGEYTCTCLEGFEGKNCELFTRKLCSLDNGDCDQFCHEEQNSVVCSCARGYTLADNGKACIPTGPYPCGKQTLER
Experimental: as §1, §2

[9] = tested on: human plasma; experiment: Prothrombin time (PT) clotting assay; assay type: biochemical; settings: highest concentration of 2500 μM
Experimental: The APTT assay is employed to assess the impact of a new potential anticoagulant on clotting driven by the contact/intrinsic pathway, involving FIXa, FXIa, and FXIIa. Conversely, the PT assay is utilized to gauge the impact of the new potential anticoagulant on the extrinsic pathway of coagulation, which includes FVIIa. […] In the PT assay, thromboplastin-D was created by adding 4 mL of distilled water, and the resulting mixture was warmed to 37 °C. […] Upon the addition of 200 μL of prewarmed thromboplastin-D reagent, the clotting time was recorded. In the APTT assay, 90 μL of citrated human plasma was combined with 10 μL of the molecule of interest (or the vehicle) and 100 μL of prewarmed 0.2% ellagic acid. Following a 4 min incubation at 37 °C, clotting was initiated by introducing 100 μL of prewarmed 0.025 M CaCl2, and the clotting time was recorded. In both assays, approximately nine or more concentrations of molecules were employed to generate concentration vs effect profiles. The data were then plotted against a quadratic trendline, enabling the estimation of the concentration required to double the clotting time. Clotting times were similarly measured using 10 μL of highly purified water (negative control). […]

[10] = human FXIIa, Tris–HCl buffer pH 7.4, 37 °C

Structure (SMILES) | HS (Hill slope) ([2]; human FXIIa) | ΔY (%) efficacy of inhibition ([2]; human FXIIa) | IC50 ([5]; FXIa) | IC50 [2] | HS (Hill slope) [7] | ΔY (%) [7] | IC50 [7] | other results
COC(=O)c1nc(N)n(C(=O)c2ccc(C(C)(C)C)cc2)n1 [RA, reference compound] | 1.7 ± 0.4 | 105 ± 8% | – | – | – | – | – | IC50 [1]: 0.235 µM; IC50 [2, 10]: 0.11 ± 0.01 µM; EC50 [3]: 340 µM
COC(=O)c1nc(N)n(C(=O)c2ccccc2Cl)n1 [compound 7] | – | – | 25.9 ± 4.4 µM | 1.7 µM | – | – | – | IC50 [4]: > 200 µM
COC(=O)c1nc(N)n(C(=O)c2cc(OC)c(OC)c(OC)c2)n1 [compound 8] | 1.1 ± 0.1 | 100 ± 2% | 14.9 ± 1.4 µM | 0.045 ± 0.003 µM | 0.9 ± 0.2 | 102.0 ± 4.5% | 0.019 ± 0.004 µM | fold increased potency regarding the effect on APTT ([6]; relative to RA): ~6 fold; selectivity index (IC50 enzyme/IC50 FXIIa) ([4]; FIXa over FXIIa): >4000; IC50 [4]: > 180 µM; HS (Hill slope) ([5]; FXIa): 0.9 ± 0.1; ΔY (%) ([5]; FXIa): 100.3 ± 3.1%; selectivity index (IC50 enzyme/IC50 FXIIa) [5]: 331.11; selectivity index (IC50 enzyme/IC50 FXIIa) [7]: 0.42; HS (Hill slope) ([8]; FXa): 1.2 ± 0.2; ΔY (%) ([8]; FXa): 100.8 ± 2.7%; selectivity index (IC50 enzyme/IC50 FXIIa) ([8]; FXa over FXIIa): 1057.78; IC50 ([8]; FXa, pH 7.4, 37 °C): 47.6 ± 5.8 µM
COC(=O)c1nc(N)n(C(=O)c2ccccc2)n1 [compound 9] | 1.1 ± 0.1 | 92 ± 3% | > 50 µM | – | 1.1 ± 0.2 | 89 ± 5% | 0.054 ± 0.008 µM | selectivity index (IC50 enzyme/IC50 FXIIa) [7]: 0.23; IC50 ([2]; human FXIIa): 0.24 ± 0.01 µM
CC(C)(C)c1ccc(C(=O)n2ncnc2N)cc1 [compound 10] | 1.4 ± 0.7 | 82 ± 8% | – | – | – | – | – | IC50 ([2]; FXIIa, summary picture in supplement): 8.5 µM; IC50 [2, 10]: 8.5 ± 1.2 µM; fold less potent FXIIa inhibitor ([2]; than inhibitor RA): 77.3 fold
Cc1ccc(S(=O)(=O)n2cnc([N+](=O)[O-])n2)cc1 [compound 12] | – | – | – | – | – | – | – | significant inhibitory activity against FXIIa in the screening [2]: none
O=C(O)c1nc(NS(=O)(=O)c2ccccc2[N+](=O)[O-])n[nH]1 [compound 13] | – | – | – | – | – | – | – | effect on APTT ([6]; highest concentration of 2500 μM): did not affect; effect on PT [9]: did not affect; significant inhibitory activity against FXIIa in the screening [2]: none
O=C(O)c1ncn(-c2ccccc2)n1 [compound 14] | – | – | – | – | – | – | – | significant inhibitory activity against FXIIa in the screening [2]: none
O=C(O)Cc1nc(-c2ccccc2)n[nH]1 [compound 15] | – | – | – | – | – | – | – | significant inhibitory activity against FXIIa in the screening [2]: none
COC(=O)c1nc(N)n(C(=O)c2ccc(Cl)cc2)n1 [compound 19] | 0.8 ± 0.1 | 102 ± 5% | – | 7.8 µM | – | – | – | fold decrease in FXIIa inhibition potency ([2]; relative to inhibitor 7 (chlorine ortho to para)): ~4.6 fold
COC(=O)c1nc(N)n(C(=O)c2ccccc2Br)n1 [compound 20] | 0.8 ± 0.1 | 76 ± 5% | > 50 µM | 0.08 ± 0.01 µM | 0.9 ± 0.1 | 113 ± 8% | 0.09 ± 0.02 µM | selectivity index (IC50 enzyme/IC50 FXIIa) [5]: >625; selectivity index (IC50 enzyme/IC50 FXIIa) [7]: 1.13; subclass of inhibitor based on selectivity studies [2]: dual inhibitors of FXIIa as well as thrombin
COC(=O)c1nc(N)n(C(=O)c2ccc(Br)cc2)n1 [compound 21] | 0.5 ± 0.02 | 109 ± 2% | > 50 µM | 0.9 ± 0.1 µM | 0.5 ± 0.02 | 112 ± 10% | 0.9 ± 0.2 µM | selectivity index (IC50 enzyme/IC50 FXIIa) [5]: >55.56; selectivity index (IC50 enzyme/IC50 FXIIa) [7]: 1.00; fold decrease in FXIIa inhibition potency ([2]; relative to inhibitor 20 (bromine ortho to para)): ~11.3 fold; subclass of inhibitor based on selectivity studies [2]: dual inhibitors of FXIIa as well as thrombin
COC(=O)c1nc(N)n(C(=O)c2ccc(F)cc2)n1 [compound 22] | 0.8 ± 0.1 | 74 ± 7% | > 50 µM | 0.032 ± 0.008 µM | 1.2 ± 0.2 | 118 ± 7% | 0.3 ± 0.05 µM | EC50 ([6]; human plasma, read-out: APTT (EC×1.5), effective concentration to double the clotting time): 25 to 75 µM; selectivity index (IC50 enzyme/IC50 FXIIa) [5]: >1562.50; selectivity index (IC50 enzyme/IC50 FXIIa) [7]: 9.38; IC50 [2, 10]: 0.032 ± 0.008 µM; fold increase in FXIIa inhibition potency ([2]; relative to inhibitor 9): 7.5 fold; fold more potent FXIIa inhibitor ([2]; than inhibitor RA): 3.4 fold; subclass of inhibitor based on selectivity studies [2]: more specific inhibitors of FXIIa
Cc1cccc(C(=O)n2cnnc2N)c1 [compound 24] | – | – | > 50 µM | – | – | – | – | inhibition at 50 µM ([7]; read-out: inhibition of thrombin at 50 μM): 43%
Cc1cc(C)cc(C(=O)n2cnnc2N)c1 [compound 26] | – | – | – | – | – | – | > 50 µM | –
COc1cc(OC)cc(C(=O)n2cnnc2N)c1 [compound 30] | – | – | – | – | 1.0 ± 0.3 | 53 ± 16% | 0.25 ± 0.14 µM | –
CCOC(=O)c1nc(N)n(C(=O)c2ccccc2)n1 [compound 31] | 0.9 ± 0.1 | 91 ± 9% | – | 7.9 µM | – | – | – | –
COC(=O)c1nc(N)n(C(C)=O)n1 [compound 32] | 0.9 ± 0.2 | 67 ± 8% | – | 6.3 µM | – | – | – | –
